Common to all, as to assay type: cell-based
One experiment relates to S. aureus ATCC 6538. The experiment can be described thus: MIC by broth microdilution, S. aureus. Particulars: Staphylococcus aureus, read-out: S. aureus ATCC 6538 MIC. The method in brief:
(§1)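 MBC measured as cell viability after compound challenge by Miles-Misra drop plating. MIC: broth microdilution at ~5×10^5 cfu/mL final (S. aureus: TSB, CAMHB; E. coli: LB, CAMHB; optional 50 μM zinc sulphate), 24 h at 37° C, 200 rpm, lowest concentration without growth by OD600; biological triplicate.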

Another experiment relates to E. coli ATCC 10596. The experiment can be described thus: MIC by broth microdilution, E. coli. Conditions: Escherichia coli, read-out: E. coli ATCC 10536 MIC. The method in brief: as §1
The subject of a further experiment is S. uberis ATCC 19436. Nature of the experiment: MIC by broth microdilution, S. uberis. Particulars: Streptococcus uberis, read-out: S. uberis ATCC 19436 MIC. In outline:
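The MIC against S. uberis ATCC 19436 was the lowest compound concentration showing no growth by OD600 after 24 h at 37° C. with 200 rpm shaking. Cultures grown overnight were adjusted to OD600 ~0.025 so wells held approximately 5×10^5 cfu/mL in THB. Two-fold dilution series were made at a final volume of 200 μl. Media and untreated controls were run in triplicate on each plate.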

[1] abbreviates: ATCC 10536 / ATCC 10596, No Zinc.
Setting [2] is: ATCC 10536 / ATCC 10596, Zinc (50 μM).

Values after ≈ are worked out from the molar mass of the structure shown. Read-outs that look alike come from different tables or passages of the source.

For the compound `CN(C)Cc1ccc2cccc(NS(=O)(=O)Cc3ccccc3)c2n1` [ZDR317, N-(2-((Dimethylamino)methyl)quinolin-8-yl)-1-phenylmethanesulfonamide], the MIC in the experiment with S. aureus ATCC 6538 (ATCC6538, No Zinc) was greater than 256 µg/mL; in the experiment on S. aureus ATCC 6538 (ATCC6538, Zinc (50 μM)), 128 µg/mL (≈ 360 µM); in the experiment on E. coli ATCC 10596 (setting [1]) it was greater than 256 µg/mL; in the experiment with E. coli ATCC 10596 (setting [2]) it was greater than 256 µg/mL; in the experiment with S. uberis ATCC 19436 (ATCC19436, No Zinc), 256 µg/mL (≈ 720 µM); in the experiment with S. uberis ATCC 19436 (ATCC19436, Zinc (50 μM)), 0.25 µg/mL (≈ 0.703 µM).

Regarding `CN1CCN(Cc2ccc3cccc(NS(=O)(=O)c4ccc(C(F)(F)F)cc4)c3n2)CC1` [ZDR089, N-(2-((4-Methylpiperazin-1-yl)methyl)quinolin-8-yl)-4-(trifluoromethyl)benzenesulfonamide], the MIC with S. aureus ATCC 6538 (ATCC6538, No Zinc) was 256 µg/mL (≈ 551 µM); in the experiment with S. aureus ATCC 6538 (ATCC6538, Zinc (50 μM)), 128 µg/mL (≈ 276 µM); in the experiment on E. coli ATCC 10596 (setting [1]) it was greater than 256 µg/mL; in the experiment with E. coli ATCC 10596 (setting [2]) it was greater than 256 µg/mL; with S. uberis ATCC 19436 (ATCC19436, No Zinc), 64 µg/mL (≈ 138 µM); in the experiment with S. uberis ATCC 19436 (ATCC19436, Zinc (50 μM)), 0.5 µg/mL (≈ 1.08 µM).

For `CCCCNCc1ccc2cccc(NS(=O)(=O)c3ccc(C(F)(F)F)cc3)c2n1` [ZDR401, N-(2-((Butylamino)methyl)quinolin-8-yl)-4-(trifluoromethyl)benzenesulfonamide], the MIC was 32 µg/mL (≈ 73.1 µM) in the experiment with S. aureus ATCC 6538 (ATCC6538, No Zinc); 128 µg/mL (≈ 293 µM) in the experiment on S. aureus ATCC 6538 (ATCC6538, Zinc (50 μM)); 64 µg/mL (≈ 146 µM) in the experiment on E. coli ATCC 10596 (setting [1]); greater than 256 µg/mL with E. coli ATCC 10596 (setting [2]); 16 µg/mL (≈ 36.6 µM) in the experiment on S. uberis ATCC 19436 (ATCC19436, No Zinc); 0.125 µg/mL (≈ 0.286 µM) in the experiment on S. uberis ATCC 19436 (ATCC19436, Zinc (50 μM)).

Regarding `CN(C)Cc1ccc2cccc(NS(=O)(=O)c3ccc(C(C)(C)C)cc3)c2n1` [ZDR307, 4-(tert-Butyl)-N-(2-((dimethylamino)methyl)quinolin-8-yl)benzenesulfonamide], the minimum inhibitory concentration (MIC) is greater than 256 µg/mL with S. aureus ATCC 6538 (ATCC6538, No Zinc); greater than 256 µg/mL in the experiment on S. aureus ATCC 6538 (ATCC6538, Zinc (50 μM)); greater than 256 µg/mL with E. coli ATCC 10596 (setting [1]); greater than 256 µg/mL in the experiment with E. coli ATCC 10596 (setting [2]); greater than 256 µg/mL with S. uberis ATCC 19436 (ATCC19436, No Zinc); 0.0625 µg/mL (≈ 0.157 µM) in the experiment on S. uberis ATCC 19436 (ATCC19436, Zinc (50 μM)).

In the case of `CCN(CC)Cc1ccc2cccc(NS(=O)(=O)c3ccc(C(F)(F)F)cc3)c2n1` [ZDR028, N-(2-((Diethylamino)methyl)quinolin-8-yl)-4-(trifluoromethyl)-benzenesulfonamide], the MIC was 256 µg/mL (≈ 585 µM) in the experiment with S. aureus ATCC 6538 (ATCC6538, No Zinc); greater than 256 µg/mL in the experiment on S. aureus ATCC 6538 (ATCC6538, Zinc (50 μM)); greater than 256 µg/mL in the experiment with E. coli ATCC 10596 (setting [1]); greater than 256 µg/mL with E. coli ATCC 10596 (setting [2]); 128 µg/mL (≈ 293 µM) with S. uberis ATCC 19436 (ATCC19436, No Zinc); 0.125 µg/mL (≈ 0.286 µM) with S. uberis ATCC 19436 (ATCC19436, Zinc (50 μM)).

As to `CN(C)Cc1ccc2cccc(NS(=O)(=O)c3ccc(NC(=O)OC(C)(C)C)cc3)c2n1` [ZDR333, tert-Butyl (4-(N-(2-((dimethylamino)methyl)quinolin-8-yl)sulfamoyl)phenyl)carbamate], the MIC in the experiment with S. aureus ATCC 6538 (ATCC6538, No Zinc) is 128 µg/mL (≈ 280 µM); with S. aureus ATCC 6538 (ATCC6538, Zinc (50 μM)), 128 µg/mL (≈ 280 µM); with E. coli ATCC 10596 (setting [1]), greater than 256 µg/mL; in the experiment on E. coli ATCC 10596 (setting [2]), greater than 256 µg/mL; in the experiment on S. uberis ATCC 19436 (ATCC19436, No Zinc), 64 µg/mL (≈ 140 µM); with S. uberis ATCC 19436 (ATCC19436, Zinc (50 μM)) it was 0.125 µg/mL (≈ 0.274 µM).

Turning to `CN(C)Cc1ccc2cccc(NS(=O)(=O)N3CCOCC3)c2n1` [ZDR192, N-(2-((Dimethylamino)methyl)quinolin-8-yl)morpholine-4-sulfonamide], the minimal inhibitory concentration (MIC) in the experiment on S. aureus ATCC 6538 (ATCC6538, No Zinc) was greater than 256 µg/mL; in the experiment on S. aureus ATCC 6538 (ATCC6538, Zinc (50 μM)), greater than 256 µg/mL; with E. coli ATCC 10596 (setting [1]) it was greater than 256 µg/mL; in the experiment with E. coli ATCC 10596 (setting [2]), greater than 256 µg/mL; in the experiment with S. uberis ATCC 19436 (ATCC19436, No Zinc), greater than 256 µg/mL; with S. uberis ATCC 19436 (ATCC19436, Zinc (50 μM)), 1 µg/mL (≈ 2.85 µM).

As for `CN(C)Cc1ccc2cccc(NS(=O)(=O)c3cccc(F)c3)c2n1` [ZDR312, N-(2-((Dimethylamino)methyl)quinolin-8-yl)-3-fluorobenzenesulfonamide], the minimum inhibitory concentration (MIC) with S. aureus ATCC 6538 (ATCC6538, No Zinc) is 256 µg/mL (≈ 712 µM); in the experiment on S. aureus ATCC 6538 (ATCC6538, Zinc (50 μM)) it was 256 µg/mL (≈ 712 µM); with E. coli ATCC 10596 (setting [1]) it was greater than 256 µg/mL; in the experiment with E. coli ATCC 10596 (setting [2]), greater than 256 µg/mL; with S. uberis ATCC 19436 (ATCC19436, No Zinc), 128 µg/mL (≈ 356 µM); with S. uberis ATCC 19436 (ATCC19436, Zinc (50 μM)), 0.125 µg/mL (≈ 0.348 µM).

For the compound `O=S(=O)(Nc1cccc2ccc(CNCCOCCO)nc12)c1ccc(C(F)(F)F)cc1` [ZDR129, N-(2-(((2-(2-Hydroxyethoxy)ethyl)amino)methyl)quinolin-8-yl)-4-(trifluoromethyl)benzenesulfonamide], the minimal inhibitory concentration (MIC) in the experiment with S. aureus ATCC 6538 (ATCC6538, No Zinc) turned out to be 32 µg/mL (≈ 68.2 µM); in the experiment on S. aureus ATCC 6538 (ATCC6538, Zinc (50 μM)), 32 µg/mL (≈ 68.2 µM); in the experiment on E. coli ATCC 10596 (setting [1]) it was 256 µg/mL (≈ 545 µM); in the experiment on E. coli ATCC 10596 (setting [2]) it was 256 µg/mL (≈ 545 µM); in the experiment on S. uberis ATCC 19436 (ATCC19436, No Zinc), 64 µg/mL (≈ 136 µM); with S. uberis ATCC 19436 (ATCC19436, Zinc (50 μM)), 1 µg/mL (≈ 2.13 µM).

(Values after US11691949B2, “Quinoline sulfonamide compounds and their use as antibacterial agents” (OTAGO INNOVATION LIMITED, priority 2017, dated 2023).)
